Measured values as given in patent US20230122219A1, “IRAK DEGRADERS AND USES THEREOF” (Kymera Therapeutics, Inc., priority 2020, published 2023).

What was measured:
IRAK4 [1] = target: T1, IRAK4 (Homo sapiens, UniProt Q9NWZ3); assay: IRAK4 MSD Degradation in OCI-LY10; assay type: cell-based; set-up: endogenous in cells; host or cells: OCI-LY10; conditions: OCI-LY10 cells, 4 hrs, Meso Scale Discovery
T1 sequence (Q9NWZ3 1-460): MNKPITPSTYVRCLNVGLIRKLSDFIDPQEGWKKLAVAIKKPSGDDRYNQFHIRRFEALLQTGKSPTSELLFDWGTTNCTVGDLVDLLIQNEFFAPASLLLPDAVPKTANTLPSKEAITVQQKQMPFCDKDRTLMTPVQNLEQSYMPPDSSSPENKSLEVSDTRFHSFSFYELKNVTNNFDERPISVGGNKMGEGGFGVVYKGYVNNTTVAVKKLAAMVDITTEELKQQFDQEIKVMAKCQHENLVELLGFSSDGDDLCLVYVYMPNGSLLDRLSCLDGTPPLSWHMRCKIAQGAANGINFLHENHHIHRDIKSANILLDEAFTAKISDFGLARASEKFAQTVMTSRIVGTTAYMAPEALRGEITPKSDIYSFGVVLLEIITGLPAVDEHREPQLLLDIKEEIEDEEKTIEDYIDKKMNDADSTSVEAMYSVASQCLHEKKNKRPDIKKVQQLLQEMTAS
Protocol: Degradation of IRAK4 in OCI-LY10 was quantitatively measured using Meso Scale Discovery technology. OCI-LY10 cells were seeded in 96-well plates (Corning 3799) with a density of 300,000 cells per well in 100 μL fresh media. Compounds were then added to the assay plates with a final top concentration of 1 to 10 μM in a 1:3 dilution series with total of 8 doses. The assay plates were then incubated for 4 to 24 hours at 37° C. under 5% CO2. The assay plates were then centrifuged for 5 minutes and the cell pellets were treated with 100 μL/well RIPA lysis buffer (Boston BioProducts BP-115D) with proteinase inhibitors. To prepare MSD assay plates (Meso Scale Discovery Catalog number L15XA-3), the plates were coated with […] capture antibody (mouse Anti-IRAK4 antibody [2H9], ab119942) in PBS, at 40 μL/well. […] The assay plates were then incubated at room temperature for 1 hour, washed 3 times with 150 μL/well TBST buffer, and 150 μL/well MSD reading buffer (Meso Scale Discovery catalog number R92TC-2) was added. The plates were then analyzed by a MSD reader (Meso Scale Discovery, Model Quick Plex SQ 120). The data was then analyzed by software Prism 7.0 from GraphPad and the dose-depended IRAK4 degradation were fit using a three-parameter logistic equation to calculate DC50. […]

IRAK4 [2] = target: T1, IRAK4; assay: Human Whole Blood IRAK4 Degradation (whole blood monocyte, flow cytometry); assay type: cell-based; set-up: Whole blood was collected in heparinized tubes and plated on the same day as draw (day 0); from tissue; host or cells: human whole blood (CD14-positive monocytes gated by flow cytometry); conditions: human whole blood monocytes, read-out: IRAK4 degradation in whole blood: Average external Abs DC50
Protocol: Whole blood was collected in heparinized tubes and plated on the same day as draw (day 0). Whole blood was aliquoted into deep well plates. Compound plates were prepared and a 10 point, 5-fold dilution was performed with a final DMSO concentration of 0.1%. Compound was added to whole blood deep well plate, sealed and incubated at 37° C., 5% C02 for 20 hours (for 4 hour treatment, compounds were prepared and added the following day). Following the treatment incubation period (day 1), BD lyse fix (BD#558049) was added to the whole blood plate, placed on plate shaker for 30 seconds and incubated for 10 mins at room temperature. Whole blood was then spun down and washed two times with PBS/0.5% BSA, aspirated to pellet and placed into −80° C. freezer until further processing for flow. On the flow run day, whole blood plates were thawed and samples were transferred to PCR plates. The pre-perm staining cocktail (CD3 Ax488/CD8 BUV805/CD14 BUV395/CD16/56 BV711/CD19 BV785) was added to samples and incubated for 30 minutes at room temperature. Samples were washed two times and permeabilized with Methanol for 10 minutes at 4° C. […] Twenty hour dose curves were calculated using a 4 parameter logistic regression curve fit, no constraints (Top doses were removed if hook effects were observed and the bottom was constrained to 0). […]

## CN(C[C@H]1CC[C@H](n2cc(NC(=O)c3cnn4cccnc34)c(C(F)F)n2)CC1)C1CCN(c2cccc3c2n(C)c(=O)n3C2CCC(=O)NC2=O)CC1 (some centres unmarked) [I-1]
IRAK4 [1]
  DC50: < 50 nM
IRAK4 [2]
  DC50: < 50 nM
